Where two headings read alike, the source gives them in different places.
What was measured:
[1] = target: HIV-1 IN-LEDGF/p75 interaction (Human immunodeficiency virus type 1 group M subtype B, UniProt P12497); assay: biochemical
[2] = system: primary HIV-1 isolates with polymorphisms at IN positions 124 and 125; assay: Multiple-round infection of MT4 cells with primary HIV-1 isolates polymorphic at IN positions 124 and 125; type: cell-based; conditions: primary isolate
Procedure, shortened: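 Exponentially growing MT4 cells at 10^6/mL infected for 2 h at MOI 0.001 in the presence of varying compound concentrations. Cell viability quantified by CellTiter-Glo luminescence.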

HXB2 HIV-1 strain = assay: Multiple-round infection assay in MT4 cells, HXB2; type: cell-based; conditions: Human immunodeficiency virus 1, HXB2; multiple-round infection, MT4 cells; mean ± SD, n > 5; read-out: EC50 HXB2
Procedure, shortened: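 MT4 cells at 10^6/mL were infected with HIV-1 at MOI 0.001 for 2 h in the presence of compound dilutions. Cell viability, measured by CellTiter-Glo luminescence, served as the read-out of protection in this multiple-round infection.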

[3] = system: VSV-G-pseudotyped NL4-3Δenv-luc; assay: microbe, parasite or virus in culture; type: cell-based, HIV-1; conditions: Human immunodeficiency virus 1, NL43, MT4, read-out: EC50 in single-round infection
[4] = Cytotoxicity assay in MT4 cells; type: cell-based; conditions: human, MT4 cells (proliferating human T-cell line), CellTiter-Glo
Text: Growth inhibition was monitored in a proliferating human T-cell line (MT4) with different concentrations of compounds, using the CellTiter-Glo luminescent reagent (Promega), as previously described ([12]).

[5] = system: HIV-1 strains resistant to INSTIs, NRTIs, NNRTIs or PIs; type: cell-based
Procedure, shortened: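 NL4-3-based recombinant mutants and drug-resistant clinical isolates; exponentially growing MT4 cells (10^6/mL) infected at MOI 0.001 for 2 h with compound at varying concentrations. Protection quantified as cell viability by CellTiter-Glo luminescence.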

NL4-3 HIV-1 strain = assay: Multiple-round infection assay in MT4 cells, NL4-3; type: cell-based; conditions: MT4 cells
[6] = system: NL4-3 HIV-1 with INLAI-selected IN single point mutations; type: cell-based
[7] = system: lab-adapted and clinical HIV-1 isolates; assay: Infection assays in primary T CD4+ lymphocytes; type: cell-based; conditions: Human immunodeficiency virus 1, Lymphocyte
HIV-1 IN = target: T1, HIV-1 IN (Human immunodeficiency virus type 1 group M subtype B, UniProt P12497); assay: HTRF IN multimerization assay; type: biochemical; conditions: mean ± SD
T1 construct: made in house
Text: A key property of INLAIs is the ability to promote HIV-1 IN homo-multimerization ([39][–][42]). […] The maximal signal (plateau) in our IN aggregation assay corresponds to the highest HTRF signal increase under saturating INLAI concentration, relative to baseline level. Thus, MUT916, MUT884, MUT871, and MUT872 increased HIV-1 IN aggregation 3.7 to 4.4-fold, while BDM-2, BI-224436, and S-I-82 did so 5 to 6-fold (Table 1).

[8] = system: recombinant NL4-3 viruses with polymorphisms at IN positions 124 and 125; assay: Multiple-round infection of MT4 cells with recombinant NL4-3 viruses polymorphic at IN positions 124 and 125; type: cell-based, HIV-1
Procedure, shortened: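 MT4 cells (10^6/mL) infected with NL4-3 carrying IN 124/125 polymorphisms (15 combinations) at MOI 0.001 for 2 h with compound present. Viability read by CellTiter-Glo luminescence; EC50 expressed as fold change versus wild-type NL4-3 (Thr124/Thr125).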

[9] = target: CCD of HIV-1 IN and IBD of LEDGF/p75 (Human immunodeficiency virus type 1 group M subtype B, UniProt P12497); assay: biochemical
Experimental: The INLAIs were tested for the ability to inhibit the HIV-1 IN-LEDGF/p75 interaction in a homogeneous time-resolved fluorescence (HTRF) assay. Our assays used either full-length IN and LEDGF/p75 proteins or their respective minimally sufficient interaction domains: the CCD of HIV-1 IN and the IBD of LEDGF/p75 (Table 1).
HTRF-based CCD-IBD interaction, IN-LEDGF/p75 interaction and IN multimerization assays were performed as described previously ([12]).

[10] = INSTI-resistant, NL4-3 background
[11] = INSTI-resistant, primary patient-derived strain

## Cc1nc2ccccc2c(-c2ccc3c4c(ccnc24)CCO3)c1[C@H](OC(C)(C)C)C(=O)O [BI-224436, reference compound]
[1]
  IC50: 0.09 ± 0.019 µM
[2]; IN 124/125 AA
  Fold change in EC50 relative to parental NL4-3, CAM2BBY (CRF02): 2
  Fold change in EC50 relative to parental NL4-3, E0836M4 (D): 1
  Fold change in EC50 relative to parental NL4-3, KER2008 (A): 1
  Fold change in EC50 relative to parental NL4-3, NP1525 (CRF01): 1
  Fold change in EC50 relative to parental NL4-3, NP1695 (CRF02): 2
  Fold change in EC50 relative to parental NL4-3, TZA125 (C): 0.5
[2]; IN 124/125 GA
  Fold change in EC50 relative to parental NL4-3, KSM4030 (A): 1
  Fold change in EC50 relative to parental NL4-3, vGA (C): 2
[2]; IN 124/125 NA
  Fold change in EC50 relative to parental NL4-3, 99ET14 (C): 1
  Fold change in EC50 relative to parental NL4-3, NP1538 (B): 1
  Fold change in EC50 relative to parental NL4-3, vNA_1 (B): 2
  Fold change in EC50 relative to parental NL4-3, vNA_2 (CRF02): 2
[2]; IN 124/125 NV
  Fold change in EC50 relative to parental NL4-3, vNV (B): 1
[2]; IN 124/125 SA
  Fold change in EC50 relative to parental NL4-3, vSA_1 (B): 3
  Fold change in EC50 relative to parental NL4-3, vSA_2 (CRF02): 2
[2]; IN 124/125 TA
  Fold change in EC50 relative to parental NL4-3, vTA_1 (B): 2
  Fold change in EC50 relative to parental NL4-3, vTA_2 (CRF02): 2
HXB2 HIV-1 strain
  EC50: 0.023 ± 0.0084 µM
[3]
  EC50: 1.4 ± 0.3 µM
[4]
  CC50: > 200 µM
[5]; [10]
  Fold change in EC50 relative to NL4-3, E92Q: 1
  Fold change in EC50 relative to NL4-3, G140S: 1
  Fold change in EC50 relative to NL4-3, G140S/Q148H: 1
  Fold change in EC50 relative to NL4-3, N155H: 1
  Fold change in EC50 relative to NL4-3, Q148H: 1
  Fold change in EC50 relative to NL4-3, Y143R: 1
[5]; [11]
  Fold change in EC50 relative to NL4-3, E92Q/N155H (pat.): 1
  Fold change in EC50 relative to NL4-3, G140S/Q148H (pat.): 1
  Fold change in EC50 relative to NL4-3, T97A/N155H (pat.): 1
[5]; NRTI-resistant clone
  Fold change in EC50 relative to NL4-3, NLAY351717: 1
[5]; NRTI/NNRTI-resistant clone
  Fold change in EC50 relative to NL4-3, NLAY351753: 1
[5]; NRTI/NNRTIs group, NL4-3 background
  Fold change in EC50 relative to NL4-3, K103N/Y181C: 1
[5]; PI-resistant virus
  Fold change in EC50 relative to NL4-3, ARP-4595: 0.4
  Fold change in EC50 relative to NL4-3, ARP-4596: 0.5
  Fold change in EC50 relative to NL4-3, ARP-11801: 1
  Fold change in EC50 relative to NL4-3, ARP-11803: 1
  Fold change in EC50 relative to NL4-3, ARP-11807: 1
  Fold change in EC50 relative to NL4-3, ARP-11808: 1
NL4-3 HIV-1 strain; Human immunodeficiency virus 1, NL43, multiple-round infection, from dose response curves, read-out: EC90 NL4-3
  EC90: 0.077 ± 0.034 µM
NL4-3 HIV-1 strain; Human immunodeficiency virus 1, NL43, multiple-round infection, mean ± SD, n > 5, read-out: EC50 NL4-3
  EC50: 0.051 ± 0.017 µM
NL4-3 HIV-1 strain
  Selectivity index CC50/EC50 NL4-3: >3,921
[6]
  EC50 fold change compared to wild type NL4-3, A128T: 6
  EC50 fold change compared to wild type NL4-3, H171Q: 4
  EC50 fold change compared to wild type NL4-3, N222K: 2
  EC50 fold change compared to wild type NL4-3, T174I: 706
  EC50 fold change compared to wild type NL4-3, Y99H: 2
[7]; read-out: EC50 33913N (B)
  EC50: 0.02 ± 0.009 µM
[7]; read-out: EC50 HXB2 (B)
  EC50: 0.014 ± 0.007 µM
[7]; read-out: EC50 KER2008 (A)
  EC50: 0.037 ± 0.012 µM
[7]; read-out: EC50 NL4-3 (B)
  EC50: 0.1 ± 0.08 µM
[7]; read-out: EC50 NP1525 (CRF01_AE)
  EC50: 0.061 ± 0.035 µM
[7]; read-out: EC50 NP1538 (B)
  EC50: 0.066 ± 0.042 µM
HIV-1 IN; concentration for 50% maximum activation of multimerization
  AC50: 0.034 ± 0.011 µM
HIV-1 IN; maximum multimerization reached versus baseline
  IN multimerization Plateau: 670 ± 210%
[8]; recombinant NL4-3, IN 124/125 AA
  Fold change in EC50 relative to parental NL4-3, AA: 1
[8]; recombinant NL4-3, IN 124/125 AM
  Fold change in EC50 relative to parental NL4-3, AM: 0.4
[8]; recombinant NL4-3, IN 124/125 AT
  Fold change in EC50 relative to parental NL4-3, AT: 1
[8]; recombinant NL4-3, IN 124/125 AV
  Fold change in EC50 relative to parental NL4-3, AV: 1
[8]; recombinant NL4-3, IN 124/125 GA
  Fold change in EC50 relative to parental NL4-3, GA: 1
[8]; recombinant NL4-3, IN 124/125 GT
  Fold change in EC50 relative to parental NL4-3, GT: 2
[8]; recombinant NL4-3, IN 124/125 NA
  Fold change in EC50 relative to parental NL4-3, NA: 1
[8]; recombinant NL4-3, IN 124/125 NT
  Fold change in EC50 relative to parental NL4-3, NT: 1
[8]; recombinant NL4-3, IN 124/125 NV
  Fold change in EC50 relative to parental NL4-3, NV: 1
[8]; recombinant NL4-3, IN 124/125 SA
  Fold change in EC50 relative to parental NL4-3, SA: 1
[8]; recombinant NL4-3, IN 124/125 ST
  Fold change in EC50 relative to parental NL4-3, ST: 1
[8]; recombinant NL4-3, IN 124/125 TA
  Fold change in EC50 relative to parental NL4-3, TA: 1
[8]; recombinant NL4-3, IN 124/125 TM
  Fold change in EC50 relative to parental NL4-3, TM: 0.4
[8]; recombinant NL4-3, IN 124/125 TV
  Fold change in EC50 relative to parental NL4-3, TV: 1
[9]
  IC50: 0.073 ± 0.013 µM
